Source: ChEMBL document CHEMBL1201862, “PubChem BioAssay data set” (2004)
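Dose response: 5 concentrations. Exposure: 48 h. Format: 96-well plates. Endpoint: linear interpolation; highest concentration if not reached. GI50 marks 50% less growth.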 Active and inactive are the calls of the source. Cut-off read from the data, not from the text of the source: active = GI50 up to about 1.1 µM and inactive = higher.

Legend:
Assay in all cases: DTP human tumour cell line panel, 48 h
UACC-62 = test system: UACC-62
NCI-H522 = test system: NCI-H522
NCI-H460 = test system: NCI-H460
RXF 393 = test system: RXF 393
UACC-257 = test system: UACC-257
HCT-116 = test system: HCT-116
K562 = test system: K562
A498 = test system: A498
SW-620 = test system: SW-620
OVCAR-4 = test system: OVCAR-4
TK-10 = test system: TK-10
SNB-75 = test system: SNB-75
U-251 = test system: U-251
COLO 205 = test system: COLO 205
786-0 = test system: 786-0
EKVX = test system: EKVX
HL-60 = test system: HL-60
MCF7 = test system: MCF7
MDA-MB-231 = test system: MDA-MB-231

Measured: GI50

Cc1ccc(NC(=O)CSc2nnc(Cc3ccccc3)o2)cc1
inactive: UACC-62 > 100 µM | NCI-H522 > 100 µM | NCI-H460 > 100 µM | RXF 393 > 100 µM | UACC-257 > 100 µM | HCT-116 > 100 µM | K562 > 100 µM | A498 > 100 µM | SW-620 > 100 µM | OVCAR-4 > 100 µM | TK-10 > 100 µM | SNB-75 > 100 µM | U-251 > 100 µM | COLO 205 > 100 µM | 786-0 > 100 µM | EKVX > 100 µM

CCOC(=O)c1c(NNc2ccccc2)nc2ccccc2c1-c1ccccc1
inactive: UACC-62 16.6 µM | NCI-H522 30.1 µM | NCI-H460 28.4 µM | RXF 393 42 µM | UACC-257 29.7 µM | HCT-116 21.8 µM | HL-60 15.8 µM | K562 22.5 µM | A498 > 100 µM | SW-620 50.4 µM | OVCAR-4 37.5 µM | TK-10 80.4 µM | SNB-75 36.8 µM | U-251 34.4 µM | COLO 205 30 µM | 786-0 31.7 µM | EKVX 50.2 µM

Cc1ccc(S(=O)(=O)NC(C)C(=O)O)cc1 (stereo not drawn)
inactive: UACC-62 > 100 µM | NCI-H522 > 100 µM | NCI-H460 > 100 µM | RXF 393 > 100 µM | UACC-257 > 100 µM | HL-60 > 100 µM | A498 > 100 µM | SW-620 > 100 µM | OVCAR-4 > 100 µM | TK-10 > 100 µM | SNB-75 > 100 µM | U-251 > 100 µM | COLO 205 > 100 µM | 786-0 > 100 µM | EKVX > 100 µM

COc1cc2ccc3c4cc(OC)c(OCc5ccccc5)cc4cnc3c2cc1OC
inactive: UACC-62 > 100 µM | NCI-H522 > 100 µM | NCI-H460 > 100 µM | UACC-257 > 100 µM | K562 > 100 µM | A498 > 100 µM | SW-620 > 100 µM | OVCAR-4 > 100 µM | TK-10 > 100 µM | SNB-75 > 100 µM | U-251 > 100 µM | COLO 205 > 100 µM | 786-0 > 100 µM | EKVX > 100 µM

COC(=O)C(=O)C(C(=O)C=C(C)C)C(=O)C(=O)Nc1cccc(C(C)=O)c1 (stereo not drawn)
inactive: UACC-62 > 100 µM | NCI-H522 > 100 µM | NCI-H460 > 100 µM | RXF 393 > 100 µM | UACC-257 > 100 µM | HCT-116 > 100 µM | HL-60 > 100 µM | K562 > 100 µM | A498 > 100 µM | SW-620 > 100 µM | OVCAR-4 > 100 µM | TK-10 > 100 µM | SNB-75 > 100 µM | U-251 > 100 µM | COLO 205 > 100 µM | 786-0 > 100 µM | EKVX > 100 µM

CCNc1nnc(CSc2nc(-c3ccccc3)c(-c3ccccc3)[nH]2)s1
inactive: NCI-H522 19.9 µM | NCI-H460 24.9 µM | UACC-257 17.3 µM | HCT-116 22 µM | HL-60 15.5 µM | SW-620 20.2 µM | OVCAR-4 30.5 µM | TK-10 18.5 µM | SNB-75 23 µM | U-251 13.7 µM | COLO 205 19.1 µM | 786-0 24.4 µM | EKVX 14.3 µM

CCc1cccc(CC)c1NC(=O)C1=CNC(C)=C(C(=O)Nc2c(CC)cccc2CC)C1c1ccc(O)c(OC)c1 (stereo not drawn)
inactive: NCI-H522 26.4 µM | NCI-H460 31.6 µM | RXF 393 25.3 µM | UACC-257 28.2 µM | HL-60 26.5 µM | K562 31.4 µM | A498 24.7 µM | SW-620 30.3 µM | OVCAR-4 23.9 µM | TK-10 47.6 µM | SNB-75 44.7 µM | U-251 12.4 µM | COLO 205 56.2 µM | 786-0 34.4 µM | EKVX 35.2 µM

O=C1C=CC(S(=O)(=O)C2=C/C(=C/Nc3ccc(Cl)cc3)C(=O)C=C2)=C/C1=C/Nc1ccc(Cl)cc1
inactive: UACC-62 > 100 µM | NCI-H522 > 100 µM | NCI-H460 > 100 µM | RXF 393 > 100 µM | UACC-257 > 100 µM | HCT-116 > 100 µM | HL-60 > 100 µM | K562 > 100 µM | A498 > 100 µM | SW-620 > 100 µM | OVCAR-4 > 100 µM | TK-10 > 100 µM | SNB-75 47.6 µM | U-251 > 100 µM | COLO 205 > 100 µM | 786-0 > 100 µM | EKVX > 100 µM

FC(F)(F)C12C34C=CC5(CCC6(C=CC1(CC3)O6)C52C(F)(F)F)O4 (stereo not drawn)
inactive: NCI-H522 > 100 µM | NCI-H460 > 100 µM | RXF 393 93.5 µM | UACC-257 > 100 µM | HCT-116 > 100 µM | HL-60 > 100 µM | K562 > 100 µM | A498 > 100 µM | SW-620 > 100 µM | OVCAR-4 > 100 µM | TK-10 > 100 µM | U-251 > 100 µM | COLO 205 > 100 µM | 786-0 > 100 µM | EKVX > 100 µM

Nc1ccc(-c2cc(C(=O)Nc3nccs3)nc(S)n2)cc1
inactive: UACC-62 > 100 µM | NCI-H522 > 100 µM | RXF 393 > 100 µM | UACC-257 > 100 µM | HCT-116 > 100 µM | K562 > 100 µM | A498 > 100 µM | SW-620 > 100 µM | OVCAR-4 > 100 µM | TK-10 > 100 µM | SNB-75 > 100 µM | U-251 > 100 µM | COLO 205 > 100 µM | 786-0 > 100 µM | EKVX > 100 µM

CCOc1ccccc1NC(=O)CCc1nnc2s/c(=C\CCc3ccccc3)c(=O)n12
inactive: UACC-62 > 100 µM | NCI-H522 > 100 µM | NCI-H460 > 100 µM | RXF 393 > 100 µM | UACC-257 > 100 µM | HCT-116 > 100 µM | HL-60 > 100 µM | K562 > 100 µM | A498 > 100 µM | SW-620 > 100 µM | OVCAR-4 > 100 µM | TK-10 > 100 µM | SNB-75 > 100 µM | U-251 > 100 µM | COLO 205 > 100 µM | 786-0 > 100 µM

COC(=O)C1CCCN1C(=O)C(Cc1cn(S(=O)(=O)c2ccc(C)cc2)cn1)NC(=O)OC(C)(C)C (stereo not drawn)
inactive: UACC-62 > 100 µM | NCI-H460 > 100 µM | RXF 393 > 100 µM | UACC-257 > 100 µM | HCT-116 > 100 µM | HL-60 > 100 µM | MCF7 > 100 µM | K562 > 100 µM | A498 > 100 µM | SW-620 > 100 µM | TK-10 > 100 µM | SNB-75 > 100 µM | U-251 > 100 µM | COLO 205 > 10 µM | 786-0 > 100 µM | MDA-MB-231 > 100 µM | EKVX > 100 µM

CN1C(=O)N(C)C(N2CCCC2)c2c1nc1ccccn1c2=O (stereo not drawn)
inactive: UACC-62 67 µM | NCI-H522 61 µM | NCI-H460 76.4 µM | RXF 393 49 µM | UACC-257 50.7 µM | HCT-116 60.4 µM | HL-60 36.8 µM | K562 53.1 µM | A498 34.8 µM | SW-620 60.5 µM | OVCAR-4 58.1 µM | TK-10 > 100 µM | SNB-75 45.9 µM | U-251 70.5 µM | COLO 205 > 100 µM | 786-0 97.9 µM | EKVX 43.3 µM

CC(Oc1ccc(OCC2CCCCC2)cc1)C(=O)NCc1ccco1 (stereo not drawn)
inactive: UACC-62 56 µM | NCI-H522 18.4 µM | NCI-H460 48.1 µM | RXF 393 22.6 µM | UACC-257 23.6 µM | HCT-116 26.4 µM | HL-60 31.5 µM | K562 42.3 µM | A498 24.7 µM | OVCAR-4 56.5 µM | TK-10 84.7 µM | SNB-75 25.6 µM | U-251 36.6 µM | 786-0 34.6 µM

Cn1c(N)[n+](C(=O)OCc2ccccc2)c(=O)c2c1ncn2C(=O)OCc1ccccc1
inactive: UACC-62 > 100 µM | NCI-H522 30.9 µM | NCI-H460 > 100 µM | UACC-257 > 100 µM | HCT-116 52.2 µM | HL-60 > 100 µM | K562 > 100 µM | A498 30.8 µM | SW-620 > 100 µM | OVCAR-4 65.2 µM | TK-10 46.7 µM | SNB-75 24 µM | U-251 9.82 µM | COLO 205 > 100 µM | 786-0 30.1 µM | EKVX 89.5 µM

N#C/N=C(/N)NCc1ccccc1
inactive: NCI-H522 > 100 µM | NCI-H460 > 100 µM | UACC-257 > 100 µM | HCT-116 > 100 µM | HL-60 > 100 µM | A498 > 100 µM | OVCAR-4 > 100 µM | TK-10 > 100 µM | SNB-75 > 100 µM | U-251 > 100 µM | COLO 205 > 100 µM | 786-0 > 100 µM

COCN1COCN/C1=N\C#N
inactive: UACC-62 > 100 µM | NCI-H522 > 100 µM | NCI-H460 > 100 µM | RXF 393 83.2 µM | UACC-257 > 100 µM | HCT-116 > 100 µM | HL-60 > 100 µM | K562 88.3 µM | A498 > 100 µM | SW-620 22.5 µM | OVCAR-4 75.5 µM | TK-10 > 100 µM | SNB-75 > 100 µM | U-251 > 100 µM | COLO 205 41 µM | 786-0 > 100 µM | EKVX > 100 µM
